Assay results published in article PMC12291762 (Antioxidants, 2025).

Columns and labels:
COX-1 and COX-2 = conditions: cited from earlier work
[1] = tested on: systemic oxidative stress parameters; experiment: Systemic redox state (plasma, erythrocyte lysate) 24 h after carrageenan; type: in vivo, Wistar albino rats
Description: (§1) Following 24 h of carrageenan-induced paw edema inflammation model and intraperitoneal anesthesia induced by ketamine/xylazine (100/10 mg/kg of BW), the animals were sacrificed, while whole-blood samples and edema-affected paw tissues were isolated. After centrifugation of whole blood, plasma and erythrocyte lysate samples were separated for further examination of the applied compounds’ effects on the systemic redox balance state. Pro-oxidative markers including superoxide anion radical (O2∙^−), hydrogen peroxide (H2O2) nitrites (NO2^−), and index of lipid peroxidation measured as thiobarbituric acid (TBA) reactive substances (TBARS) were determined from plasma samples, while the antioxidant capacity, including superoxide dismutase (SOD) and catalase (CAT) activity, as well as the reduced glutathione (GSH) level were examined in erythrocyte lysate samples [46]. […] Edema-affected paw tissue samples were weighed (100 mg) and homogenized (OmniPrep™ multi-sample homogenizer, Omni International, Kennesaw, GA, USA) in 900 µL phosphate buffer on ice (pH = 7.4), and centrifuged at 12,000 rpm for 20 min. These supernatant samples were used for the determination of the aforementioned pro-oxidative and antioxidative parameters levels. All oxidative stress analyses were performed spectrophotometrically using a Shimadzu UV 1800 spectrophotometer (Kyoto, Japan).
(§2) Determination of the O2∙^− level was conducted by adding 950 µL of a Nitro Blue Tetrazolium (NBT) mixture with TRIS buffer in 50 µL of sample, measured at the 550 nm wavelength. The level of H2O2 was determined during the oxidation of phenol red by H2O2, which was catalyzed with horseradish peroxidase and measured at the 610 nm wavelength. Indirect measurement of nitrites was performed by the precipitation of samples with 30% sulfo-salicylic acid, followed by vortexing and centrifugation at 3000 rpm for 15 min. The equal volumes of isolated supernatant and Griess’ reagent (containing 1% sulfanilamide in 5% phosphoric acid/0.1% naphthalene ethylenediamine-dihydrochloride) were incubated for 10 min and measured at the 550 nm wavelength. The TBARS concentration was determined by adding 400 µL of sample to 200 µL of TBA in 0.05 M NaOH, followed by 15 min incubation at 100 °C. Measurement was performed at the 530 nm wavelength.
(§3) The epinephrine method was used for SOD determination. By adding 100 µL of sample, the same volume of epinephrine, and 1000 µL of carbonate buffer, the measurement was performed at the 470 nm wavelength. The determination of CAT activity was based on the preparation of a mixture containing 100 µL of sample, 50 µL of catalase buffer, and 1000 µL of 10 mM H2O2, which was measured at the 230 nm wavelength.

COX-1 = target: T1, COX-1 (Ovis aries, UniProt P05979); experiment: Fluorometric COX-1 inhibitor screening kit; type: biochemical; parameters: purchased Abcam ab204698; conditions: mean ± standard error, three independent measurements
T1 sequence (P05979 25-600): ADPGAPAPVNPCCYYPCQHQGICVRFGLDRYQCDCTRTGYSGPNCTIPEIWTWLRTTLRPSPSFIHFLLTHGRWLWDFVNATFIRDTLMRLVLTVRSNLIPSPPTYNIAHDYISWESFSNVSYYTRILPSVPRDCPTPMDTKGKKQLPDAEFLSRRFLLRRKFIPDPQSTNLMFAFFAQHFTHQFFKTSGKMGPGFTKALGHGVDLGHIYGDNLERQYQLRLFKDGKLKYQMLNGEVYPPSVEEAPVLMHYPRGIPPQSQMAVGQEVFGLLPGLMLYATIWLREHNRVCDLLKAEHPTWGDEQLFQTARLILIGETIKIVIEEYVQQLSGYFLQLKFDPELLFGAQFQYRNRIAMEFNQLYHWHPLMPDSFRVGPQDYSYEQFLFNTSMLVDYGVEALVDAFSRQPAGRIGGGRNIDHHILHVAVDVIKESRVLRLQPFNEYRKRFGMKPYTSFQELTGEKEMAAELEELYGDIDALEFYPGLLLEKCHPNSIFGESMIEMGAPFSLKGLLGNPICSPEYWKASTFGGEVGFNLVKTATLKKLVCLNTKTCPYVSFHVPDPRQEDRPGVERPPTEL
Description: The inhibitory activity of the tested compounds against COX-1 and COX-2 isoforms was assessed using fluorometric cyclooxygenase inhibitor screening kits (Catalog Numbers ab204698 and ab283401, respectively; Abcam, Cambridge, UK). These assays detect the formation of prostaglandin G2, a product of COX enzymatic activity, via fluorometric measurement.
Stock solutions of the test compounds were prepared at a concentration of 5 mM in DMSO and subsequently diluted with the same solvent to obtain the test solutions. For the assay preparation, 2 μL of each test solution was diluted with 8 μL of COX assay buffer. The solvent control (SC) consisted of 2 μL of DMSO and 8 μL of assay buffer, while the enzyme control (EC) contained 10 μL of assay buffer alone. Sample wells (S) received 10 μL of the diluted test solutions. All other steps were in accordance with the manufacturer’s protocol and the previously published article. […] The percentage of inhibition was calculated as follows:(3) % Relative Inhibition=Slope of EC−Slope of S/Slope of EC×100
Fluorescence measurements were conducted on a BioTek Synergy LX multi-mode reader (Winooski, VT, USA).

[2] = tested on: local oxidative stress parameters; experiment: Local redox state (edema-affected paw tissue homogenate) 24 h after carrageenan; type: in vivo, Wistar albino rats; conditions: inflamed paw tissue
Description: as §1, §2, §3

IC50 (COX-1)	Structure (SMILES)	Times lower COX inhibitory capacity than dexketoprofen (COX-1 and COX-2)	Systemic CAT activity compared to Sol (untreated) rats ([1]; erythrocyte lysate)	Systemic GSH level compared to untreated rats ([1]; erythrocyte lysate)	Systemic SOD activity compared to Sol (untreated) rats ([1]; erythrocyte lysate)	Systemic H2O2 level compared to solvent rats ([1]; plasma)	Systemic O2∙− level compared to untreated (Sol) rats ([1]; plasma)	Systemic TBARS level compared to Sol (untreated) rats ([1]; plasma)	Local O2∙− concentration compared to untreated rats [2]	Local SOD activity compared to untreated (negative control) rats [2]	Local nitrites level (reduction, p < 0.05) ([2]; comparator not given)
–	C[C@@H](C(=O)O)c1cccc(C(=O)c2ccccc2)c1 [(R)-ketoprofen]	100 to 1000 times	–	–	–	–	–	–	–	–	–
1.5 ± 0.6 nM	C[C@H](C(=O)O)c1cccc(C(=O)c2ccccc2)c1 [Dexketoprofen, reference compound]	–	significantly reduced activity of SOD and CAT, as well as the GSH level, in untreated rats compared to Dex	significantly reduced activity of SOD and CAT, as well as the GSH level, in untreated rats compared to Dex	significantly reduced activity of SOD and CAT, as well as the GSH level, in untreated rats compared to Dex	significantly lower	significantly lower	significantly decreased	significantly decreased	remarkably improved	markedly reduced
